Experimental findings from PMC10298284, “Synthesis and hLDH Inhibitory Activity of Analogues to Natural Products with 2,8-Dioxabicyclo[3.3.1]nonane Scaffold” (International Journal of Molecular Sciences, 2023) are described below.

One data set deals with T1, recombinant human LDHA (Homo sapiens, UniProt P00338).
T1 construct: purchased Abcam
In words: hLDHA enzymatic activity assay (kinetic spectrofluorimetric, β-NADH fluorescence decrease). Conditions: for IC50: mean ± SD of n = 3 replicates; for Selectivity Rate (IC50 hLDHB/hLDHA): ratio IC50 hLDHB / IC50 hLDHA. The format is biochemical. The protocol: (§1) Briefly, the decrease in the coenzyme β-NADH fluorescence (λemission = 460 nm) was measured for 10 min, at different concentration of inhibitors, and its slope was compared with the one obtained when there were not inhibitors added (100% enzymatic activity).
The enzymatic assay was conducted on 96-well microplates and the decrease in the β-NADH fluorescence (λexcitation = 340 nm; λemission = 460 nm) was detected in a TECAN Infinite 200 Pro M Plex fluorescent plate reader (Tecan Instrument, Inc.) at 28 °C. The activity was determined according to our previously described protocol. The final volume in each well was set to 200 µL using 100 mM potassium phosphate buffer, 0.041 units/mL LDHA, 155 µM β-NADH, 1 mM pyruvate (saturated conditions), and DMSO solutions (5%, v/v) of pure compounds at concentrations in the range of 1–600 µM. The addition of pyruvate allowed the beginning of the reaction and fluorescence was registered every 60 s during 10 min. A lineal time interval was selected to calculate the slope at every single concentration. […] The slope obtained at each concentration was compared to the one obtained for the 100% enzymatic activity control to determine the corresponding enzymatic activity. A nonlinear regression analysis in GraphPad Prism version 9.00 for Windows (GraphPad Software, La Jolla, CA, USA) was used for dose response curve, fitting of logarithm of inhibitor concentration vs. normalized enzymatic activity, to calculate IC50 values (Supplementary Material section). All measurements were made in triplicate and data were expressed as the mean ± SD.

A further data set has as its target T2, recombinant human LDHB (Homo sapiens, UniProt P07195).
T2 construct: purchased Abcam
In words: hLDHB enzymatic activity assay (same fluorimetric protocol). Format: biochemical. To be noted: mean ± SD of n = 3 replicates. On the procedure:
as §1
The ability of the synthesized compounds to inhibit the hLDHB enzyme was measured using recombinant human LDHB (95%, specific activity >300 units/mg and concentration of 1.0 mg/mL, Abcam, Cambridge, UK) following the same fluorimetric protocol described in Section 3.4.

Setting [1] is: 1 mM pyruvate, 155 µM β-NADH, pH 7.3, 28 °C, read-out: hLDHA IC50.
The mark [2] stands for this setting: supplementary dose response curves, µM only on the axis label, read-out: IC50 (hLDHA inhibition curve).

The structures appear in SMILES notation. Values joined by “and” are separate entries in the source; they are usually repeats but may differ in a detail not shown here. Equal values may be shown once. Read-outs that look alike come from different tables or passages of the source.

T2 sequence (P07195 whole entry): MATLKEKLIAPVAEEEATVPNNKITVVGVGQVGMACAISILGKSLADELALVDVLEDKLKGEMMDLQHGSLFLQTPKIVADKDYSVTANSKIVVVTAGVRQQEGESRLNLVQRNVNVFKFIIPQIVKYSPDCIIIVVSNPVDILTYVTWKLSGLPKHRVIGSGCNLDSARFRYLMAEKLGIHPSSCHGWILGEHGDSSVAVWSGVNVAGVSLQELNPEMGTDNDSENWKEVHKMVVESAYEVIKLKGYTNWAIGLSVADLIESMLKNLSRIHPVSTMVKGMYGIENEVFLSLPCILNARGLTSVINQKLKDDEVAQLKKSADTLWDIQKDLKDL

What is called melting point is the temperature of the solid-liquid transition. As to `COc1ccc(C23CC(c4cc(Cl)ccc4O2)c2c(O)cc(O)cc2O3)cc1OC` (racemic) [(±)-44, 2-(3′,4′-Dimethoxyphenyl)-6-chlorochromane-(4→4″, 2→O-5″)-phloroglucinol], the melting point was 257 to 259 °C.
On to `O=c1oc2ccccc2c2c1C1CC(c3ccc(O)c(O)c3)(Oc3ccc([N+](=O)[O-])cc31)O2` (racemic) [(±)-46, 2-(3′,4′-Dihydroxyphenyl)-6-nitrochromane-(4→3″, 2→O-4″)-4″-hydroxycoumarin], for which the melting point is 128 to 130 °C (dec.).
By IC50 is commonly meant the concentration that inhibits the measured activity by half. As to `COc1ccc(C23CC(c4ccccc4O2)c2c(c4ccccc4oc2=O)O3)cc1OC` (racemic) [(±)-48], the IC50 at recombinant human LDHA (setting [1]) is 49.6 ± 1.7 µM; on recombinant human LDHA (setting [2]), 49.6 ± 1.7 µM; on recombinant human LDHB (read-out: hLDHB IC50), greater than 300 µM. In addition, the “Selectivity Rate (IC50 hLDHB/hLDHA)” value at recombinant human LDHA is reported as greater than 6.0.
For `O=c1oc2ccccc2c2c1C1CC(c3ccc(O)cc3)(Oc3ccccc31)O2` (racemic) [(±)-51], the results for the IC50 at recombinant human LDHA (setting [1]), on recombinant human LDHA (setting [2]) and on recombinant human LDHB (read-out: hLDHB IC50) were 34.4 ± 0.8 µM, 34.4 ± 0.8 µM and 31.5 ± 3 µM, respectively. Besides, the “Selectivity Rate (IC50 hLDHB/hLDHA)” value on recombinant human LDHA is given as 0.9.
Regarding `O=c1oc2ccccc2c2c1C1CC(c3ccc(O)cc3)(Oc3ccc([N+](=O)[O-])cc31)O2` (racemic) [(±)-52, 2-(4′-Hydroxyphenyl)-6-nitrochromane-(4→3″, 2→O-4″)-4″-hydroxycoumarin], the melting point is 275 to 278 °C. The IC50 at recombinant human LDHA (setting [1]) was found to be 36.9 ± 1.2 µM. The “Selectivity Rate (IC50 hLDHB/hLDHA)” value at recombinant human LDHA stood at 1.8. Moreover, the IC50 on recombinant human LDHA (setting [2]) was 36.9 ± 1.2 µM.
Regarding `O=c1oc2ccccc2c2c1C1CC(c3ccc(O)cc3)(Oc3ccc(Cl)cc31)O2` (racemic) [(±)-53, 2-(4′-Hydroxyphenyl)-6-chlorochromane-(4→3″, 2→O-4″)-4″-hydroxycoumarin], the melting point was 250 to 252 °C (dec.).
Turning to `O=C1C2=C(C(=O)c3ccccc31)C1CC(c3ccc(O)c(O)c3)(O2)Oc2ccccc21` (racemic) [(±)-54, 2-(3′,4′-Dihydroxyphenyl)-chromane-(4→3″, 2→O-2″)-2″-hydroxy-1″,4″-naphthoquinone], the melting point is 190 to 192 °C (dec.).
For the compound `COc1ccc(C23CC(C4=C(O2)C(=O)c2ccccc2C4=O)c2ccccc2O3)cc1OC` (racemic) [(±)-57], the IC50 on recombinant human LDHA (setting [1]) is 42.2 ± 2.4 µM; on recombinant human LDHA (setting [2]), 42.2 ± 2.4 µM; on recombinant human LDHB (read-out: hLDHB IC50), greater than 300 µM. Besides, the “Selectivity Rate (IC50 hLDHB/hLDHA)” value at recombinant human LDHA is listed as greater than 7.1.
Compound `COc1ccc(C23CC(C4=C(O2)C(=O)c2ccccc2C4=O)c2cc([N+](=O)[O-])ccc2O3)cc1OC` (racemic) [(±)-58, 2-(3′.4′-Dimethoxyphenyl)-6-nitrochromane-(4→3″, 2→O-2″)-2″-hydroxy-1″,4″-naphthoquinone] returned a melting point of 148 to 150 °C.
`COc1ccc(C23CC(C4=C(O2)C(=O)c2ccccc2C4=O)c2cc(Cl)ccc2O3)cc1OC` (racemic) [(±)-59, 2-(3′,4′-Dimethoxyphenyl)-6-chlorochromane-(4→3″, 2→O-2″)-2″-hydroxy-1″,4″-naphthoquinone] gave a melting point of 124 to 127 °C.
`O=C1C2=C(C(=O)c3ccccc31)C1CC(c3ccc(O)cc3)(O2)Oc2ccc([N+](=O)[O-])cc21` (racemic) [(±)-60, 2-(4′-Hydroxyphenyl)-6-nitrochromane-(4→3″, 2→O-2″)-2″-hydroxy-1″,4″-naphthoquinone]: the melting point is 270 to 273 °C (dec.).
For the compound `O=C1C2=C(C(=O)c3ccccc31)C1CC(c3ccc(O)cc3)(O2)Oc2ccc(Cl)cc21` (racemic) [(±)-61, 2-(4′-Hydroxyphenyl)-6-chlorochromane-(4→3″, 2→O-2″)-2″-hydroxy-1″,4″-naphthoquinone], the melting point is 249 to 251 °C.
On to `COc1ccc([C@]23C[C@H](C4=C(C[C@@H](c5ccccc5)OC4=O)O2)c2ccccc2O3)cc1OC` (racemic) [(±)-62a, 2-(3′,4′-Dimethoxyphenyl)-chromane-(4→3″, 2→O-4″)-4″-hydroxy-6″-phenyl-5″,6″-dihydro-2H-pyran-2″-one], for which the IC50 at recombinant human LDHA (setting [1]) is < 10 µM and 3.6 µM; at recombinant human LDHA (setting [2]), 3.6 ± 0.3 µM; on recombinant human LDHB (supplementary dose response curves, µM only on the axis label, read-out: IC50 (hLDHB inhibition curve)), 150 ± 3.9 µM. In addition, the “Selectivity Rate (IC50 hLDHB/hLDHA)” value at recombinant human LDHA worked out at 41.8.
In the case of `COc1ccc([C@]23C[C@H](C4=C(C[C@H](c5ccccc5)OC4=O)O2)c2ccccc2O3)cc1OC` (racemic) [(±)-62b, 2-(3′,4′-Dimethoxyphenyl)-chromane-(4→3″, 2→O-4″)-4″-hydroxy-6″-phenyl-5″,6″-dihydro-2H-pyran-2″-one], the IC50 on recombinant human LDHA (setting [1]) was 39.4 ± 1.2 µM; on recombinant human LDHA (setting [2]) it was 39.4 ± 1.2 µM; on recombinant human LDHB (read-out: hLDHB IC50), greater than 300 µM. The “Selectivity Rate (IC50 hLDHB/hLDHA)” value at recombinant human LDHA is greater than 7.6.
For the compound `COc1ccc(C23CC(C4=C(CC(c5ccc(Cl)cc5)OC4=O)O2)c2ccccc2O3)cc1OC` (racemic) [(±)-63a, 2-(3′,4′-Dimethoxyphenyl)-chromane-(4→3″, 2→O-4″)-6″-(4‴-chlorophenyl)-4″-hydroxy-5″,6″-dihydro-2H-pyran-2″-one], the melting point was in the range of 110 to 112 °C.
Take `COc1ccc(C2CC3=C(C(=O)O2)C2CC(c4ccc(OC)c(OC)c4)(O3)Oc3ccccc32)cc1` (racemic) [(±)-64b, 2-(3′,4′-Dimethoxyphenyl)-chromane-(4→3″, 2→O-4″)-4″-hydroxy-6″-(4‴-methoxyphenyl)-5″,6″-dihydro-2H-pyran-2″-one]: the values for the IC50 at recombinant human LDHA (setting [1]), at recombinant human LDHA (setting [2]) and at recombinant human LDHB (read-out: hLDHB IC50) were 96.7 ± 9 µM, 96.7 ± 9 µM and greater than 300 µM, respectively. Besides, the “Selectivity Rate (IC50 hLDHB/hLDHA)” value on recombinant human LDHA was greater than 3.1.
Regarding `COc1ccc(C23CC(C4=C(CC(c5ccccc5)OC4=O)O2)c2cc([N+](=O)[O-])ccc2O3)cc1OC` (racemic) [(±)-65b, 2-(3′,4′-Dimethoxyphenyl)-6-nitrochromane-(4→3″, 2→O-4″)-4″-hydroxy-6″-phenyl-5″,6″-dihydro-2H-pyran-2″-one], the IC50 was < 10 µM and 8.5 µM on recombinant human LDHA (setting [1]); 8.5 ± 0.4 µM on recombinant human LDHA (setting [2]); greater than 300 µM on recombinant human LDHB (read-out: hLDHB IC50). Further, the “Selectivity Rate (IC50 hLDHB/hLDHA)” value at recombinant human LDHA is reported as greater than 35.3.
In the case of `COc1ccc(C23CC(C4=C(CC(c5ccc(Cl)cc5)OC4=O)O2)c2cc([N+](=O)[O-])ccc2O3)cc1OC` (racemic) [(±)-66b, 2-(3′,4′-Dimethoxyphenyl)-6-nitrochromane-(4→3″, 2→O-4″)-6″-(4‴-chlorophenyl)-4″-hydroxy-5″,6″-dihydro-2H-pyran-2″-one], the IC50 at recombinant human LDHA (setting [1]) is < 10 µM and 6 µM; at recombinant human LDHA (setting [2]), 6 ± 0.1 µM; on recombinant human LDHB (read-out: hLDHB IC50), 20.4 ± 0.7 µM. Besides, on recombinant human LDHA, the “Selectivity Rate (IC50 hLDHB/hLDHA)” value is 3.4.
For `COc1ccc(C2CC3=C(C(=O)O2)C2CC(c4ccc(OC)c(OC)c4)(O3)Oc3ccc([N+](=O)[O-])cc32)cc1` (racemic) [(±)-67b, 2-(3′,4′-Dimethoxyphenyl)-6-nitrochromane-(4→3″, 2→O-4″)-4″-hydroxy-6″-(4‴-methoxyphenyl)-5″,6″-dihydro-2H-pyran-2″-one], the IC50 was 14.6 ± 0.3 µM at recombinant human LDHA (setting [1]), 14.6 ± 0.3 µM at recombinant human LDHA (setting [2]) and 53.7 ± 0.9 µM at recombinant human LDHB (read-out: hLDHB IC50). For the same compound, on recombinant human LDHA, the “Selectivity Rate (IC50 hLDHB/hLDHA)” value is given as 3.7.
The compound `COc1ccc(C23CC(C4=C(CC(c5ccccc5)OC4=O)O2)c2cc(Cl)ccc2O3)cc1OC` (racemic) [(±)-68a, 2-(3′,4′-Dimethoxyphenyl)-6-chlorochromane-(4→3″, 2→O-4″)-4″-hydroxy-6″-phenyl-5″,6″-dihydro-2H-pyran-2″-one] came in with a melting point of 106 to 108 °C.
Consider `COc1ccc(C23CC(C4=C(CC(c5ccc(Cl)cc5)OC4=O)O2)c2cc(Cl)ccc2O3)cc1OC` (racemic) [(±)-69b, 2-(3′,4′-Dimethoxyphenyl)-6-chlorochromane-(4→3″, 2→O-4″)-6″-(4‴-chlorophenyl)-4″-hydroxy-5″,6″-dihydro-2H-pyran-2″-one], for which the IC50 amounted to 14.2 ± 0.8 µM on recombinant human LDHA (setting [1]), 14.2 ± 0.8 µM at recombinant human LDHA (setting [2]) and 77 ± 9.7 µM at recombinant human LDHB (read-out: hLDHB IC50). In addition, on recombinant human LDHA, the “Selectivity Rate (IC50 hLDHB/hLDHA)” value was 5.4.
In the case of `COc1ccc(C2CC3=C(C(=O)O2)C2CC(c4ccc(OC)c(OC)c4)(O3)Oc3ccc(Cl)cc32)cc1` (racemic) [(±)-70b, 2-(3′.4′-Dimethoxyphenyl)-6-chlorochromane-(4→3″, 2→O-4″)-4″-hydroxy-6″-(4‴-methoxyphenyl)-5″,6″-dihydro-2H-pyran-2″-one], the concentration for half-maximal inhibition (IC50) on recombinant human LDHA (setting [1]) was determined as 20.2 ± 0.7 µM; on recombinant human LDHA (setting [2]), 20.2 ± 0.7 µM; on recombinant human LDHB (read-out: hLDHB IC50), 292 ± 4.1 µM. Also, the “Selectivity Rate (IC50 hLDHB/hLDHA)” value at recombinant human LDHA is 14.5; at recombinant human LDHA (listed as 70b) it was greater than 10.
